In article PMC10545747, “Development of cyclopeptide inhibitors of cGAS targeting protein-DNA interaction and phase separation” (Nature Communications, 2023):
Values joined by “and” are separate entries in the source; they are usually repeats but may differ in a detail not shown here. Equal entries are not always repeated. Square brackets hold non-standard residues; d marks the D form. Peptide text beside a SMILES is read from it.

Key:
[1] = tested on: THP1 cells stimulated with poly (I: C) (TLR3 and RIG-I/MDA-5 pathways); test: qPCR of IFNB1 mRNA in THP1 cells stimulated by poly (I: C); assay type: cell-based, human
Excerpt: We next evaluated the inhibitory effect of XQ2 against cGAS in murine fibroblast L929 cells, macrophage RAW264.7 cells and primary bone marrow-derived macrophages (BMDMs) from C57BL/6 mice.
(§1) The indicated cells were stimulated with either ISD (Sangon Biotech), HSV-1 (Provided by Dr. Zhengfan Jiang), HSV60mer (Sangon Biotech), SATE-cddA[70], 2’3’-cGAMP (Invivogen, Cat# tlrl-nacga23-1), ADU-S100 (MedChemExpress, Cat# HY-12885A) or Poly(I:C) (Invivogen, Cat# tlrl-pic) after XQ2 or XQ2B treatment. Total RNA was isolated from indicated cells that incubated with the drugs for indicated time or mice tissues by using NucleoZOL reagent (MACHEREY-NAGEL) according to the manufacturer’s instructions. The quantifications of mRNA levels were carried out by real-time PCR using a PerfectStart® Uni RT&qPCR Kit (TransGen Biotech) on the QuantStudio 5 qPCR machine (Applied Biosystems). Samples were carried out in triplicate and the target CT values were normalized to GAPDH CT values. Primers of qPCR used in this study can be found in Supplementary Table S2.

[2] = tested on: macrophage RAW264.7 cells; test: qPCR of Ifnb1/Cxcl10/Il6 mRNA in RAW264.7 cells (ISD or HSV-1); assay type: cell-based, mouse; design: key to Ifnb1 mRNA (Fig. S2c) / Cxcl10 mRNA (Fig. S2c) / Ifnb1 mRNA (Fig. S2d) / Cxcl10 mRNA (Fig. S2d) / Ifnb1 mRNA (Fig. S7g) / Cxcl10 mRNA (Fig. S7g) / Il6 mRNA (Fig. S7g): mRNA level normalized to GAPDH (relative expression)
Procedure: as §1, with “S2. […]” for “S2.”
(c) L929, p = 0.0005 (Ifnb1),
BMDMs, p = 0.0001 (Ifnb1), p < 0.0001 (Cxcl10).
representative of three independent experiments in (a-g). (Data are presented as mean ± SD, n = 3 independent
Source data are provided as a Source Data file.

[3] = tested on: HSV-1-infected THP1 cells; test: qPCR of IFNB1/CXCL10/IL6 mRNA in THP1 cells stimulated by HSV-1 infection; assay type: cell-based, human; conditions: HSV-1, XQ2B
in vitro = conditions: human, THP1 cells, Cell viability (Fig. S7a)
Procedure: (§2) Cell viability was measured by cell counting kit-8 (TargetMol) according to the manufacturer’s instructions.
(§3) Supplementary Fig. 2. […]
(§4) (e-g) THP1 cells (e), L929 cells (f) and RAW264.7 cells (g) were exposed to the indicated doses of XQ2 for 48h, the cell viability was measured by CCK8 assay. Data are representative of three independent experiments in (a-g). (Data are presented as mean ± SD, n = 3 independent samples in (a-g), **p < 0.01, ***p < 0.001, ****p < 0.0001 using one-way ANOVA with Dunnett’s post hoc test).
(§5) Source data are provided as a Source Data file. […]
(§6) Relative viability(%) XQ2B
(§7) Supplementary Fig. 7. […] (a) THP1 cells were exposed to the indicated doses of XQ2 or XQ2B for 48h. The cell viability was measured by CCK8 assay. […]
(§8) Data are representative of three independent experiments with similar results in (e), or three independent experiments in (a -d, f, g) . (Data are presented as mean ± SD, n = 3 independent samples in (a-d, f, g), ns, not significant, **p < 0.01, ***p < 0.001, ****p < 0.0001 using one-way ANOV A with Dunnett’s post hoc test). Source data are provided as a Source Data file.

THP1 cells = test: in vitro; conditions: for Cell viability (Fig. S7a): human, THP1 cells
Procedure: as §2, §3, §4, §5, §6, §7, §8

With `CC(C)C[C@@H]1NC(=O)[C@H](CCCNC(=N)N)NC(=O)[C@H](C(C)C)NC(=O)[C@@H]2CCCN2C(=O)[C@@H](Cc2ccccc2)NC(=O)[C@H](CC(C)C)NC(=O)[C@H](CCCNC(=N)N)NC(=O)[C@H]([C@@H](C)O)NC(=O)[C@H](C)NC(=O)[C@@H](Cc2ccccc2)NC1=O` [XQ2B] (cyclo([dF]ATRL[dF]PVRL)) the “IFNB1 mRNA level (Fig. S7c)” value ([1]; Poly(I:C), XQ2B) was 1527.76 and 1720.01 and 1878.29, the “poly (I: C)-induced IFNB1 expression” value ([1]; THP1, 10 μM) was “no significant effect on signaling induced by STING agonists or TLR3 agonist such as poly (I: C)” and the “Cxcl10 mRNA (Fig. S7g)” value ([2]; ISD+XQ2B) was 1166.92 and 1221.79 and 1328.72. The “Ifnb1 mRNA (Fig. S7g)” value ([2]; ISD+XQ2B) was 1896.14 and 2591.99 and 2490, the “Il6 mRNA (Fig. S7g)” value ([2]; ISD+XQ2B) was 1526.53 and 1838.42 and 1588.85 and the “Cxcl10 mRNA (Fig. S7g)” value ([2]; XQ2B alone) was 2.509 and 2.275 and 2.115. The “Ifnb1 mRNA (Fig. S7g)” value ([2]; XQ2B alone) was 1.291 and 1.1996 and 1.38, the “IFNB1 mRNA level (Fig. S7c)” value [3] was 7.282 and 8.679 and 8.662 and the viability at 48 h, 0.195312 µM (in vitro) was 100%. The viability at 48 h, 0.390625 µM (in vitro) was 98%, the viability at 48 h, 0.78125 µM (in vitro) was 101% and the viability at 48 h, 1.5625 µM (in vitro) was 108%. It also gave a viability at 48 h, 3.125 µM (in vitro) of 97.6%, a viability at 48 h, 6.25 µM (in vitro) of 113% and a viability at 48 h, 12.5 µM (in vitro) of 100%. For the same compound, the viability at 48 h, 25 µM (in vitro) was 104%, the viability at 48 h, 50 µM (in vitro) was 68.2% and the viability at 48 h, 100 µM (in vitro) was 3.61%. The viability at 48 h, 200 µM (in vitro) was 3.63%, the viability at 48 h, 400 µM (in vitro) was 3.62% and the “cytotoxicity” value (THP1 cells) was “less cytotoxicity”. The IC50 (THP1 cells; 48 h) was 89.5 ± 31.9 µM, the “Cell viability (Fig. S7a)” value (THP1 cells; 48 h, 0.195312 µM) was 104.965 and the “Cell viability (Fig. S7a)” value (THP1 cells; 48 h, 0.390625 µM) was 103.952. The “Cell viability (Fig. S7a)” value (THP1 cells; 48 h, 100 µM) was 3.53, the “Cell viability (Fig. S7a)” value (THP1 cells; 48 h, 200 µM) was 3.549 and the “Cell viability (Fig. S7a)” value (THP1 cells; 48 h, 400 µM) was 3.541.
